Source: paper PMC11279465, “Dual Inhibitors of P-gp and Carbonic Anhydrase XII (hCA XII) against Tumor Multidrug Resistance with Piperazine Scaffold” (Molecules, 2024)

What was measured:
hCA I = target: T1, hCA I (Homo sapiens, UniProt P00915); test: CA inhibition, stopped-flow CO2 hydrase assay; format: biochemical; details: stopped-flow technique; incubation time 6 h; mean of 3 assays
T1 construct: made in house
Description: (§1) Four hCA isoforms were used in this assay: the cytosolic hCA I and II and the tumor-associated transmembrane hCA IX and XII isoforms. Acetazolamide (AAZ) was used as a standard inhibitor.
(§2) An SX.18MV-R Applied Photophysics (Oxford, UK) stopped-flow instrument has been used to assay the catalytic/inhibition of various CA isozymes. […] Saturated CO2 solutions in water at 25 °C were used as substrate. Stock solutions of inhibitors were prepared at a concentration of 10 μM (in DMSO-water 1:1, v/v) and dilutions up to 0.01 nM were carried out with the assay buffer mentioned above. […] Inhibitor and enzyme solutions were preincubated together for 6 h at room temperature prior to assay in order to allow for the formation of the E-I complex. […] The inhibition constants were obtained by non-linear least-squares methods using the Cheng–Prusoff equation, as reported earlier, and represent the mean from at least three different determinations.

hCA II = target: T2, hCA II (Homo sapiens, UniProt P00918); test: CA inhibition, stopped-flow CO2 hydrase assay; format: biochemical; details: stopped-flow technique; incubation time 6 h; mean of 3 assays
T2 construct: made in house
Description: as §1, §2

hCA IX = target: T3, hCA IX (Homo sapiens, UniProt Q16790); test: CA inhibition, stopped-flow CO2 hydrase assay; format: biochemical; details: stopped-flow technique; incubation time 6 h; mean of 3 assays
T3 construct: made in house
Description: as §1, §2

hCA XII = target: T4, hCA XII (Homo sapiens, UniProt O43570); test: CA inhibition, stopped-flow CO2 hydrase assay; format: biochemical; details: stopped-flow technique; incubation time 6 h; mean of 3 assays
T4 construct: made in house
Description: as §1, §2

K562/DOX cells = test: Doxorubicin cytotoxicity enhancement assay (MTT); format: cell-based, human; details: 72 h
Description: K562 is a highly undifferentiated erythroleukemia cell line. The doxorubicin-resistant K562/DOX cells overexpress almost exclusively the transporter membrane protein P-gp.
K562/DOX cells were incubated for 72 h with different concentrations of doxorubicin in combination with 1 or 3 µM of all compounds. […] HT29, A549, HT29/DOX and A549/DOX cells were incubated for 48 h with 5 µM doxorubicin, alone or in combination with 1 or 3 µM of selected compounds. Cell viability of the cell lines was measured by the MTT assay, using a Synergy HT microplate spectrofluorometer (Bio-Tek Instruments, Winooski, VT, USA). The absorbance of untreated cells was considered 100%; results were expressed as a percentage of viable treated cells versus the control untreated cells.

A549 cells = test: Intrinsic cytotoxicity (MTT); format: cell-based, human; details: compound alone at 1 µM; parental A549; 48 h
Description: (§3) All compounds were preliminarily studied to evaluate their intrinsic cytotoxicity at different concentrations (from 10 nM to 50 µM) in the parental HT29 and A549 and the resistant HT29/DOX and A549/DOX cells using the MTT assay.
(§4) The intrinsic toxicity of the studied compounds was determined by an MTT assay. K562 and K562/DOX were exposed for 72 h with compounds at 1 and 3 µM concentrations while HT29, A549, HT29/DOX and A549/DOX cells were incubated for 48 h with compounds used at different concentrations (from 10 nM to 50 µM). The percentage of growth compared to the untreated control was transformed into histograms with the GraphPad Prism 5 program.

HT29 cells = test: Intrinsic cytotoxicity (MTT); format: cell-based, human; details: compound alone at 1 µM; parental HT29; 48 h
Description: as §3, §4

A549/DOX cells [1] = test: Intrinsic cytotoxicity (MTT); format: cell-based, human; details: compound alone at 1 µM; A549/DOX; 48 h
Description: as §3
as §4, with “program. […]” for “program.”

HT29/DOX cells [2] = test: Intrinsic cytotoxicity (MTT); format: cell-based, human; details: compound alone at 1 µM; HT29/DOX; 48 h
Description: as §3
as §4, with “program. […]” for “program.”

A549/DOX cells [3] = test: Doxorubicin co-administration assay (MTT); format: cell-based, human; details: compound at 3 µM + doxorubicin 5 µM, 48 h
Description: (§5) These compounds were then assayed at 1 and 3 µM concentrations in co-administration with doxorubicin at a concentration of 5 µM, which is known to discriminate well between sensitive and resistant cells. […] Moreover, in the A549/DOX cell line, the co-administration of 1, 2, 4–6, 14 and 19, tested at 3 µM, led to the highest enhancement of doxorubicin toxicity reaching a reduction of nearly 55.0% in cell viability.
(§6) K562/DOX cells were incubated for 72 h with different concentrations of doxorubicin in combination with 1 or 3 µM of all compounds. IC50 was the concentration killing 50% of cells and was determined graphically from relative survival curves obtained by GraphPad Prism 5 software (GraphPad, San Diego, CA, USA). HT29, A549, HT29/DOX and A549/DOX cells were incubated for 48 h with 5 µM doxorubicin, alone or in combination with 1 or 3 µM of selected compounds. Cell viability of the cell lines was measured by the MTT assay, using a Synergy HT microplate spectrofluorometer (Bio-Tek Instruments, Winooski, VT, USA). The absorbance of untreated cells was considered 100%; results were expressed as a percentage of viable treated cells versus the control untreated cells.

HT29/DOX cells [4] = test: Doxorubicin co-administration assay (MTT); format: cell-based, human; details: compound at 3 µM + doxorubicin 5 µM, 48 h
Description: as §5, §6

T4 sequence (O43570 25-354): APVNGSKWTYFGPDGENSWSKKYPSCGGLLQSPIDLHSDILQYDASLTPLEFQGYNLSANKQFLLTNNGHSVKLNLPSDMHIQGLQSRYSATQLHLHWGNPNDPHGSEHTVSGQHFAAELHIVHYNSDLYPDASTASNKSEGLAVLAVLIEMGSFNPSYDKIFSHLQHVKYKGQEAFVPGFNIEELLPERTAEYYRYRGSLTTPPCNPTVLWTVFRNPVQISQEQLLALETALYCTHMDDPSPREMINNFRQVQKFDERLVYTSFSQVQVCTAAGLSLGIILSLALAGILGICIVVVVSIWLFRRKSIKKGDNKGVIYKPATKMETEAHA
T1 sequence (P00915 whole entry): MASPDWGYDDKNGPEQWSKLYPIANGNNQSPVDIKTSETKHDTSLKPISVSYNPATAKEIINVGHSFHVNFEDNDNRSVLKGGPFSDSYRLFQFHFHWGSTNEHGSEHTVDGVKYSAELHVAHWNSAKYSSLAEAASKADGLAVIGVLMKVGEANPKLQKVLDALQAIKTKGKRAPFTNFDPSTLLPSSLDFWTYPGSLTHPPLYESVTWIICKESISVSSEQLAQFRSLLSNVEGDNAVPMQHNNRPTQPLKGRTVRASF

Row | Structure (SMILES) | Ki (hCA I) [µM] | Ki (hCA II) [µM] | Ki (hCA IX) [µM] | Ki (hCA XII) [µM] | RF (Reversal Fold: IC50 of doxorubicin alone / in presence of modulator) (K562/DOX cells; compound at 3 µM) | toxicity (A549 cells) [%] | toxicity (HT29 cells) [%] | toxicity (A549/DOX cells [1]) [%] | toxicity (HT29/DOX cells [2]) [%] | RF (Reversal Fold: IC50 of doxorubicin alone / in presence of modulator) (K562/DOX cells; compound at 1 µM) | reduction in cell viability (A549/DOX cells [3]) [%] | reduction in cell viability (HT29/DOX cells [4]) [%]
1 | COc1ccc(C(CCCN2CCN(CCCOc3ccc4oc(=O)cc(C)c4c3)CC2)c2ccc(OC)cc2)cc1 [Compound 35, 6-(3-(4-(4,4-Bis(4-methoxyphenyl)butyl)piperazin-1-yl)propoxy)-4-methyl-2H-chromen-2-one] | > 10 | > 10 | 0.523 | 0.335 | 14.3 | ≥ 35 | ≥ 35 | ≥ 35 | ≥ 35 | – | – | –
2 | COc1ccc(C(CCCN2CCN(CCCCOc3ccc4oc(=O)cc(C)c4c3)CC2)c2ccc(OC)cc2)cc1 [Compound 36, 6-(4-(4-(4,4-Bis(4-methoxyphenyl)butyl)piperazin-1-yl)butoxy)-4-methyl-2H-chromen-2-one] | > 10 | > 10 | 0.332 | 0.298 | – | ≥ 35 | ≥ 35 | ≥ 35 | ≥ 35 | – | – | –
3 | COc1cc(/C=C/CN2CCN(CCCCOc3ccc4oc(=O)cc(C)c4c3)CC2)cc(OC)c1OC [Compound 12, (E)-4-Methyl-6-(4-(4-(3-(3,4,5-trimethoxyphenyl)allyl)piperazin-1-yl)butoxy)-2H-chromen-2-one] | > 10 | > 10 | 0.104 | 0.14 | 2.7 | ≥ 35 | ≥ 35 | ≥ 35 | ≥ 35 | 1.9 | – | –

The next lines start with results.

Row | Ki (hCA I) [µM] | Ki (hCA II) [µM] | Ki (hCA IX) [µM] | Ki (hCA XII) [µM] | Structure (SMILES) | RF (Reversal Fold: IC50 of doxorubicin alone / in presence of modulator) (K562/DOX cells; compound at 3 µM) | toxicity (A549 cells) [%] | toxicity (HT29 cells) [%] | toxicity (A549/DOX cells [1]) [%] | toxicity (HT29/DOX cells [2]) [%] | RF (Reversal Fold: IC50 of doxorubicin alone / in presence of modulator) (K562/DOX cells; compound at 1 µM) | reduction in cell viability (A549/DOX cells [3]) [%] | reduction in cell viability (HT29/DOX cells [4]) [%]
4 | > 10 | > 10 | 0.0626 | 0.0294 | COc1cc(/C=C/CN2CCN(CCCOc3ccc4ccc(=O)oc4c3)CC2)cc(OC)c1OC [Compound 2, (E)-7-(3-(4-(3-(3,4,5-Trimethoxyphenyl)allyl)piperazin-1-yl)propoxy)-2H-chromen-2-one] | 4.5 | – | – | – | – | 3.8 | ~55.0 | –
5 | > 10 | > 10 | 0.149 | 0.0915 | COc1ccc(C(CCCN2CCN(CCCOc3ccc4c(C)cc(=O)oc4c3)CC2)c2ccc(OC)cc2)cc1 [Compound 29, 7-(3-(4-(4,4-Bis(4-methoxyphenyl)butyl)piperazin-1-yl)propoxy)-4-methyl-2H-chromen-2-one] | – | ≥ 35 | ≥ 35 | ≥ 35 | ≥ 35 | – | – | –
6 | > 10 | > 10 | 0.0407 | 0.0229 | COc1cc(/C=C/CN2CCN(CCCOc3ccc4oc(=O)ccc4c3)CC2)cc(OC)c1OC [Compound 8, (E)-6-(3-(4-(3-(3,4,5-Trimethoxyphenyl)allyl)piperazin-1-yl)propoxy)-2H-chromen-2-one] | 2.0 | – | – | ≥ 35 | ≥ 35 | 2.0 | – | –
7 | > 10 | > 10 | 0.0347 | 0.0272 | COc1cc(/C=C/CN2CCN(CCCOc3ccc4c(C)cc(=O)oc4c3)CC2)cc(OC)c1OC [Compound 5, (E)-4-Methyl-7-(3-(4-(3-(3,4,5-trimethoxyphenyl)allyl)piperazin-1-yl)propoxy)-2H-chromen-2-one] | 27.6 | – | – | – | – | 5.5 | – | 65.0
8 | > 10 | > 10 | 0.0252 | 0.0328 | COc1cc(/C=C/CN2CCN(CCOc3ccc4c(C)cc(=O)oc4c3)CC2)cc(OC)c1OC [Compound 4, (E)-4-Methyl-7-(2-(4-(3-(3,4,5-trimethoxyphenyl)allyl)piperazin-1-yl)ethoxy)-2H-chromen-2-one] | 15.8 | – | – | – | – | 5.7 | – | 65.0
